Laboratory results reported in publication PMC4708017, “Antiplasmodial activity of iron(II) and ruthenium(II) organometallic complexes against Plasmodium falciparum blood parasites” (Memórias do Instituto Oswaldo Cruz, 2015).
Read-outs that look alike come from different tables or passages of the source.

Legend:
[1] = system: Plasmodium falciparum blood forms (W2 clone, chloroquine-resistant); assay: in vitro antiplasmodial activity, anti-histidine-rich protein II assay; type: cell-based
Description: Continuous culture of P. falciparum and in vitro tests of drug activity - Blood-stage P. falciparum parasites, W2 clone CQ-resistant ([Oduola et al. 1988]), maintained according to [Trager & Jensen (1976)], were used in the drug activity tests after sorbitol-synchronisation ([Lambros & Vanderberg 1979)]. The antiplasmodial activity of the compounds was determined relative to control parasites kept in culture medium only ([Rieckmann et al. 1978)] through the anti-histidine-rich protein II assay ([Noedl et al. 2002)]. The IC50 of parasite growth was determined through sigmoidal dose-response curves built by curve-fitting software (Microcal Origin Software v.5.0). […]

[2] = system: HepG2 human hepatoma cells
Description: The SI was calculated in order to give an insight into the therapeutic index of the molecules, i.e., how far the toxic concentration is from the therapeutic one.

[3] = octanol/water partition coefficient (log P o/w) by HPLC; type: physicochemical; conditions: determined for the first time in this paper
Source text: Measurement of lipophilicity data - Measurements of the octanol/water partition coefficient (log P o/w) were made by the HPLC technique according to a method described previously ([Minick et al. 1988], [Pomper et al. 1990]). Measurement of the chromatographic capacity factors (k) for each molecule was done at various concentrations in the range of 95-75% methanol containing 0.25% (v/v) 1-octanol, and an aqueous phase consisting of 0.15% (v/v) n-decylamine in the buffering agent 3-morpholinopropane-1-sulfonic acid (MOPS) prepared in 1-octanol saturated water adjusted to pH 7.4. These capacity factors (k’) are extrapolated to 100% of the aqueous component given the value of k’. The logP o/w is obtained by the formula logP o/w = 0.13418 + 0.98452 logk’.

[4] = P. falciparum W2 clone, CQ-resistant, blood-stage, anti-HRPII assay, read-out: IC50 Pf

Molecule	IC50 [1, 4]	cytotoxicity class (by MLD50) [2]	log P [3]	IC50 ([1]; Plasmodium falciparum, W2, read-out: IC50 Pf)	antiplasmodial activity class ([1]; P. falciparum W2, class based on IC50)	IC50 ([1]; Plasmodium falciparum, W2, P. falciparum W2 clone, CQ-resistant, blood-stage, anti-HRPII assay, read-out: IC50 Pf)
1-[(4-(3-dimethylaminopropoxy)phenyl-phenyl)methylidene][3]ferrocenophane [Compound 8]	5.9 ± 1.6 µM	toxic (those having MLD50< 100 mM were considered toxic)	3.46			
CCN(CC)CCCC(C)Nc1ccnc2cc(Cl)ccc12 (stereo not shown) [CQ, chloroquine, reference compound]				0.1 ± 0.02 µM		
CCC(=C(c1ccccc1)c1ccccc1)c1ccccc1 [Compound 1]	83 ± 5 µM				inactive	> 60 µM
